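Briefly, cells in 96-well plates were exposed to five compound concentrations for 48 h, and endpoints were estimated by linear interpolation. At the GI50, growth is halved. TGI: concentration producing complete growth inhibition.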
Columns and labels:
Experiment in all cases: growth of human tumour cells (NCI), 48 h
786-0 renal = system: 786-0 renal
A498 renal = system: A498 renal
A549 NSCLC = system: A549 NSCLC
ACHN renal = system: ACHN renal
BT-549 breast = system: BT-549 breast
CAKI-1 renal = system: CAKI-1 renal
CCRF-CEM leukemia = system: CCRF-CEM leukemia
COLO 205 colon = system: COLO 205 colon
DU-145 prostate = system: DU-145 prostate
EKVX NSCLC = system: EKVX NSCLC
HCC-2998 colon = system: HCC-2998 colon
HCT-116 colon = system: HCT-116 colon
HCT-15 colon = system: HCT-15 colon
HL-60(TB) leukemia = system: HL-60(TB) leukemia
HOP-62 NSCLC = system: HOP-62 NSCLC
HOP-92 NSCLC = system: HOP-92 NSCLC
HS 578T breast = system: HS 578T breast
HT29 colon = system: HT29 colon
K-562 leukemia = system: K-562 leukemia
KM12 colon = system: KM12 colon
LOX IMVI melanoma = system: LOX IMVI melanoma
M14 melanoma = system: M14 melanoma
MALME-3M melanoma = system: MALME-3M melanoma
MCF7 breast = system: MCF7 breast
MDA-MB-231 breast = system: MDA-MB-231 breast
MDA-MB-435 = system: MDA-MB-435
MOLT-4 leukemia = system: MOLT-4 leukemia
NCI-H226 lung = system: NCI-H226 lung
NCI-H23 lung = system: NCI-H23 lung
NCI-H460 lung = system: NCI-H460 lung
NCI-H522 lung = system: NCI-H522 lung
NCI/ADR-RES ovarian = system: NCI/ADR-RES ovarian
OVCAR-3 ovarian = system: OVCAR-3 ovarian
OVCAR-4 ovarian = system: OVCAR-4 ovarian
OVCAR-5 ovarian = system: OVCAR-5 ovarian
OVCAR-8 ovarian = system: OVCAR-8 ovarian
PC-3 prostate = system: PC-3 prostate
RPMI-8226 leukemia = system: RPMI-8226 leukemia
RXF 393 renal = system: RXF 393 renal
SF-268 CNS = system: SF-268 CNS
SF-295 CNS = system: SF-295 CNS
SF-539 CNS = system: SF-539 CNS
SK-MEL-2 melanoma = system: SK-MEL-2 melanoma
SK-MEL-28 melanoma = system: SK-MEL-28 melanoma
SK-MEL-5 melanoma = system: SK-MEL-5 melanoma
SK-OV-3 ovarian = system: SK-OV-3 ovarian
SN12C renal = system: SN12C renal
SNB-19 CNS = system: SNB-19 CNS
SNB-75 CNS = system: SNB-75 CNS
SR leukemia = system: SR leukemia
SW-620 colon = system: SW-620 colon
T-47D breast = system: T-47D breast
TK-10 renal = system: TK-10 renal
U251 CNS = system: U251 CNS
UACC-257 melanoma = system: UACC-257 melanoma
UACC-62 melanoma = system: UACC-62 melanoma
UO-31 renal = system: UO-31 renal

COC(=O)c1c2c(c(C)[n+]([O-])c1C)C(=O)C(NCc1ccc(F)c(Cl)c1)=CC2=O
GI50 (786-0 renal): 3.1 µM | TGI (786-0 renal): 22.7 µM | GI50 (A498 renal): 1.52 µM | TGI (A498 renal): 3.68 µM | GI50 (A549 NSCLC): 2.23 µM | TGI (A549 NSCLC): 8.15 µM | GI50 (ACHN renal): 2.1 µM | TGI (ACHN renal): 7.9 µM | GI50 (BT-549 breast): 1.88 µM | TGI (BT-549 breast): 5.81 µM | GI50 (CAKI-1 renal): 2.52 µM | TGI (CAKI-1 renal): 10.4 µM | GI50 (CCRF-CEM leukemia): 3.03 µM | TGI (CCRF-CEM leukemia): 22.8 µM | GI50 (COLO 205 colon): 0.588 µM | TGI (COLO 205 colon): 2.29 µM | GI50 (DU-145 prostate): 2.44 µM | TGI (DU-145 prostate): 7.89 µM | GI50 (EKVX NSCLC): 1.93 µM | TGI (EKVX NSCLC): 5.18 µM | GI50 (HCC-2998 colon): 2.28 µM | TGI (HCC-2998 colon): 6.66 µM | GI50 (HCT-116 colon): 2.34 µM | TGI (HCT-116 colon): 10.2 µM | GI50 (HCT-15 colon): 1.39 µM | TGI (HCT-15 colon): 3.58 µM | GI50 (HL-60(TB) leukemia): 1.39 µM | TGI (HL-60(TB) leukemia): 5.68 µM | GI50 (HOP-62 NSCLC): 2.96 µM | TGI (HOP-62 NSCLC): 23.1 µM | GI50 (HOP-92 NSCLC): 2.52 µM | TGI (HOP-92 NSCLC): 5.79 µM | GI50 (HS 578T breast): 3.22 µM | TGI (HS 578T breast): 21.5 µM | GI50 (HT29 colon): 1.35 µM | TGI (HT29 colon): > 100 µM | GI50 (K-562 leukemia): 2.67 µM | TGI (K-562 leukemia): > 100 µM | GI50 (KM12 colon): 1.96 µM | TGI (KM12 colon): 9.63 µM | GI50 (LOX IMVI melanoma): 2.34 µM | TGI (LOX IMVI melanoma): 8.88 µM | GI50 (M14 melanoma): 1.41 µM | TGI (M14 melanoma): 3.12 µM | GI50 (MALME-3M melanoma): 0.214 µM | TGI (MALME-3M melanoma): 0.658 µM | GI50 (MCF7 breast): 1.32 µM | TGI (MCF7 breast): 3.23 µM | GI50 (MDA-MB-231 breast): 1.76 µM | TGI (MDA-MB-231 breast): 5.6 µM | GI50 (MDA-MB-435): 1.47 µM | TGI (MDA-MB-435): 2.87 µM | GI50 (MOLT-4 leukemia): 2.42 µM | TGI (MOLT-4 leukemia): 7.2 µM | GI50 (NCI-H226 lung): 2.98 µM | TGI (NCI-H226 lung): 9.32 µM | GI50 (NCI-H23 lung): 1.74 µM | TGI (NCI-H23 lung): 4.77 µM | GI50 (NCI-H460 lung): 1.51 µM | TGI (NCI-H460 lung): 9.09 µM | GI50 (NCI-H522 lung): 1.82 µM | TGI (NCI-H522 lung): 4.7 µM | GI50 (NCI/ADR-RES ovarian): 2.08 µM | TGI (NCI/ADR-RES ovarian): 6.92 µM | GI50 (OVCAR-3 ovarian): 0.306 µM | TGI (OVCAR-3 ovarian): 1.24 µM | GI50 (OVCAR-4 ovarian): 0.652 µM | TGI (OVCAR-4 ovarian): 2.07 µM | GI50 (OVCAR-5 ovarian): 1.66 µM | TGI (OVCAR-5 ovarian): 3.82 µM | GI50 (OVCAR-8 ovarian): 2.38 µM | TGI (OVCAR-8 ovarian): 13.9 µM | GI50 (PC-3 prostate): 2.27 µM | TGI (PC-3 prostate): 12.9 µM | GI50 (RPMI-8226 leukemia): 3.08 µM | TGI (RPMI-8226 leukemia): 24.1 µM | GI50 (RXF 393 renal): 1.73 µM | TGI (RXF 393 renal): 4.05 µM | GI50 (SF-268 CNS): 2.64 µM | TGI (SF-268 CNS): 13.2 µM | GI50 (SF-295 CNS): 1.62 µM | TGI (SF-295 CNS): 4.26 µM | GI50 (SF-539 CNS): 1.69 µM | TGI (SF-539 CNS): 3.32 µM | GI50 (SK-MEL-2 melanoma): 2.02 µM | TGI (SK-MEL-2 melanoma): 5.06 µM | GI50 (SK-MEL-28 melanoma): 3.03 µM | TGI (SK-MEL-28 melanoma): 13.2 µM | GI50 (SK-MEL-5 melanoma): 0.426 µM | TGI (SK-MEL-5 melanoma): 1.57 µM | GI50 (SK-OV-3 ovarian): 3.57 µM | TGI (SK-OV-3 ovarian): 13.6 µM | GI50 (SN12C renal): 1.52 µM | TGI (SN12C renal): 3.66 µM | GI50 (SNB-19 CNS): 2.81 µM | TGI (SNB-19 CNS): 9.33 µM | GI50 (SNB-75 CNS): 2.74 µM | TGI (SNB-75 CNS): 9.32 µM | GI50 (SR leukemia): 2.5 µM | TGI (SR leukemia): > 100 µM | GI50 (SW-620 colon): 2.21 µM | TGI (SW-620 colon): 7.12 µM | GI50 (T-47D breast): 1.84 µM | TGI (T-47D breast): 5.09 µM | GI50 (TK-10 renal): 3.76 µM | TGI (TK-10 renal): 16 µM | GI50 (U251 CNS): 2.53 µM | TGI (U251 CNS): 13.8 µM | GI50 (UACC-257 melanoma): 1.28 µM | TGI (UACC-257 melanoma): 3.1 µM | GI50 (UACC-62 melanoma): 1.38 µM | TGI (UACC-62 melanoma): 3.12 µM | GI50 (UO-31 renal): 2.11 µM | TGI (UO-31 renal): 7.46 µM
